{
  "source": "patent US8431603B2",
  "about": "“3-phenylpyrazolo[5,1-b]thiazole compounds” (Eisai R&D Management Co., Ltd., priority 2008, dated 2013)",
  "key": {"rats [1]": {"test_system": "rats", "details": "cited from earlier work"}, "rats [2]": {"test_system": "rats", "details": "cited from earlier work", "remark": "listed apart in the source"}, "rats [3]": {"test_system": "rats", "details": "cited from earlier work", "remark": "listed apart in the source"}, "[4]": {"details": "pretreatment; cited from earlier work"}, "[5]": {"details": "in vivo; cited from earlier work"}, "[6]": {"details": "in vivo; cited from earlier work", "remark": "listed apart in the source"}, "[7]": {"details": "in vivo; cited from earlier work", "remark": "listed apart in the source"}, "human CRFR1": {"target": "T1, human CRFR1 (Homo sapiens, UniProt P34998)", "T1 construct": "The full-length CRFR1 gene was obtained by PCR using human brain cDNA library; expressed in transfected cells; pcDNA3.1 expression vector; membrane fraction used", "T1 sequence (P34998 24-415)": "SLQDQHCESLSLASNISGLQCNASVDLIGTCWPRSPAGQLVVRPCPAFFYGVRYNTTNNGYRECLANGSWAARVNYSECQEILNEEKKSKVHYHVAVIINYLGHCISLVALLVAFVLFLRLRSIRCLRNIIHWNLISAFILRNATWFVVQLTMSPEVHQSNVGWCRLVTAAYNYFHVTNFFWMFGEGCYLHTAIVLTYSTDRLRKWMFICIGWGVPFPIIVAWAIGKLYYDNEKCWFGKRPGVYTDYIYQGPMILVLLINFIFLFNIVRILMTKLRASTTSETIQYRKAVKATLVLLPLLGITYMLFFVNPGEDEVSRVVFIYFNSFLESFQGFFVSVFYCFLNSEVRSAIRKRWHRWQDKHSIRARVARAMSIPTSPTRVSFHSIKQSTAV", "assay": "CRFR1 binding test (SPA competition with 125I-CRF, membrane fraction of CRFR1-expressing HEK293 cells)", "details": "100 pM 125I-CRF, room temperature, read-out: CRF1 receptor binding capacity IC50", "procedure": "The binding capacities of the compounds of the invention for CRF1 receptor (CRFR1) were evaluated.\nThe membrane fraction of human CRFR1 high-expressing cells was used as the material for a CRFR1 binding experiment. The CRFR1-expressing cells were prepared in the following manner. The full-length CRFR1 gene was obtained by PCR using human brain cDNA library (QuickClone™ Clontech). The obtained DNA fragment was inserted into a cloning vector and the nucleotide sequence was confirmed. cDNA having the proper nucleotide sequence was linked to an expression vector (pcDNA3.1™, Invitrogen). The CRFR1 expression vector was introduced into HEK293 cell, and the resistant cells which proliferated in culture medium containing G418 (1 mg/ml) were cloned by the limiting dilution method. Out of the cloned cells, cells having high binding affinity between the membrane fraction per unit of protein and sauvagine were selected according to the following binding experiment. And the selected cells were used for the experiments.\nThe cloned cells obtained in (1) were collected and suspended in ice-cooled membrane buffer (50 mM Tris-HCl, 5 mM MgCl2, 2 mM EGTA, 1 mM DTT, protease inhibitor cocktail (COMPLETE™, Roche Diagnostics) pH 7.3), and then the cells were disrupted with a Polytron ([…]) while cooling on ice (level 5, 10 seconds, 2-5 times, ice-cooling) and then centrifuged (2,000 rpm, 5 minutes, 4° C.), after which the supernatant was collected. Membrane buffer was added to the precipitate, and the mixture was subjected to Polytron treatment (same conditions as above) and centrifuged (same conditions as above), and the obtained supernatant was collected and combined with the previous supernatant. This was centrifuged (13,000 rpm (18,000×g), 30 minutes, 4° C.) to prepare cell membranes. The precipitated cell membranes were suspended in membrane buffer and disrupted with a Polytron (level 5, 10 seconds, 3-5 times, ice-cooling) to prepare a dispersed suspension. The protein assay was performed.\nThe following method (1) or (2) was performed for use as the cell membrane fraction.\n(1) The above dispersed suspension was diluted with membrane buffer containing 0.1% BSA to a protein concentration of 200 μg/ml, for use as the cell membrane fraction\n(2) The above dispersed suspension was frozen for preservation, and if needed, thawed, re-dispersed and diluted for used as the cell membrane fraction.\nA binding competition experiment with CRF was conducted by the SPA (GE Healthcare) method using a 96-well plate. A mixture of 5 μg of the cell membrane fraction protein, 1 mg of SPA beads and 100 pM ^125I-CRF (Perkin Elmer) was allowed to stand at room temperature for at least 2 hours in the presence of a test compound, and the radioactivity of each well after centrifugation (1,200 rpm (260×g), 5 minutes, room temperature) was measured with a TopCount (registered trademark; Perkin Elmer).\nThe radioactivity with addition of a 4,000-fold excess of non-radioactive sauvagine as the nonspecific binding was subtracted from each value, and the resulting value was expressed as a percentage (% of control), with 100% as the radioactivity without addition of the test compound (control). The IC50 value was calculated from a binding inhibition curve drawn with test compound concentration on the horizontal axis and % (% of control) on the vertical axis."}, "Balb/c mice": {"test_system": "Balb/c mice", "assay": "Light/dark box test in mice (anxiolytic effect)", "format": "in vivo", "procedure": "The light/dark box test in mice was carried out according to a modified method of Belzung C., Misslin R., Vogel E. et al. (Reference; Behavioural effects of the benzodiazepine receptor partial agonist RO16-6028 in mice, Psychopharmacology, 97, 388-391, 1989). The test apparatus used was a light/dark box comprising a covered black acrylic box (dark box; 15×10×20 cm), an uncovered white acrylic box (light box; 15×20×20 cm) and a black acrylic tunnel (10×7×4.5 cm) which connects dark box and light box and enables a mouse to freely move back and forth between the dark box and light box. In this test apparatus, however, a transparent acrylic polymer was used for the front side (20×20 cm) and back side (20×20 cm) of the light box to allow observation of the behavior. After setting illumination so that the light intensity of the floor of the light box was 150 Lux, 5-week-old male Balb/c mice (purchased from Nihon Charles River) were introduced into the dark box at the beginning of the test. For the test, the tested compound was suspended in 5% dimethylsulfoxide, 5% Cremopor EL and 90% physiological saline and orally administered to the test animals one hour prior to the start of the test.\nThe time spent in the light box was measured as an index of the anxiolytic effect, with “spend in the light box” defined as the state in which all limbs of the mice were on the floor of the light box. […] The statistical significance between the vehicle-treated group and the test compound-treated groups was analyzed by one way analysis of variance followed by Dunnett multiple comparison when multiple doses were set for the same test, and by the Mann-Whitney U test when only one dose was set."}, "[8]": {"details": "in vivo; cited from earlier work", "remark": "listed apart in the source"}, "rats [9]": {"test_system": "rats", "details": "cited from earlier work", "remark": "listed apart in the source"}, "high-anxiety rats": {"test_system": "high-anxiety rats", "details": "particularly in high-anxiety rats; cited from earlier work"}, "rat": {"test_system": "rat", "details": "cited from earlier work"}, "Tg2576 mice": {"test_system": "Tg2576 mice", "details": "cited from earlier work"}, "[10]": {"details": "in vivo; cited from earlier work", "remark": "listed apart in the source"}, "[11]": {"details": "in vivo; cited from earlier work", "remark": "listed apart in the source"}, "[12]": {"details": "in vivo; cited from earlier work", "remark": "listed apart in the source"}, "IBS patients": {"test_system": "IBS patients", "details": "cited from earlier work"}, "ethanol withdrawal rats": {"test_system": "ethanol withdrawal rats", "details": "cited from earlier work"}, "[13]": {"details": "in vivo; cited from earlier work", "remark": "listed apart in the source"}, "[14]": {"details": "in vivo; cited from earlier work", "remark": "listed apart in the source"}},
  "data": [
    {"molecule": "CCCCN(CC)c1nc(C)nc2c1c(C)cn2-c1c(C)cc(C)cc1C", "note": "[CP-154526]", "values": [
      {"measurement": "anti-depressant and anti-anxiety actions", "setting": "rats [1]", "value": "exhibits anti-depressant and anti-anxiety actions"},
      {"measurement": "recurrence of stress-elicited alcohol-seeking behavior", "setting": "rats [2]", "value": "inhibits"},
      {"measurement": "recurrence of stress-elicited drug (heroin, cocaine)-seeking behavior", "setting": "rats [3]", "value": "inhibits"},
      {"measurement": "naltrexone-induced morphine withdrawal symptoms", "setting": "[4]", "value": "inhibits"},
      {"measurement": "gastric emptying retardation following surgery", "setting": "[5]", "value": "ameliorates"},
      {"measurement": "learning disturbance following acute stress", "setting": "[6]", "value": "inhibits"}
    ]},
    {"molecule": "CCN(c1nc(C)cc(N2CC=C(c3cccc(F)c3)CC2)n1)c1ccc(C(C)C)cc1SC", "note": "[CRA1000]", "values": [
      {"measurement": "stress-related reduction in food intake", "setting": "[7]", "value": "inhibit"}
    ]},
    {"molecule": "COc1cc(C#N)cc(OC)c1-c1csc2c(N(CC3CC3)CC3CCOC3)c(OC)nn12", "note": "(stereo not drawn) [Example 14, 4-{7-[(Cyclopropylmethyl)(tetrahydrofuran-3-ylmethyl)amino]-6-methoxypyrazolo[5,1-b][1,3]thiazol-3-yl}-3,5-diimethoxybenzonitrile]", "values": [
      {"measurement": "IC50", "setting": "human CRFR1", "value": 90, "unit": "nM"},
      {"measurement": "anxiolytic effect in the light/dark box test", "setting": "Balb/c mice; 30 mg/kg, oral administration", "value": "statistically significant effects"},
      {"measurement": "minimal effective dose", "setting": "Balb/c mice; Mus musculus, 1 h, minimum dose significantly prolonging time spent in the light box vs vehicle, oral, one hour prior to test", "value": 30, "unit": "mg/kg"}
    ]},
    {"molecule": "CCCN(CCC)c1cc(C)nc2c(-c3cnc(N(C)C)cc3C)c(C)nn12", "note": "[Example R121919]", "values": [
      {"measurement": "ameliorating depression, depressive symptoms, anxiety", "setting": "[8]", "value": "effective"},
      {"measurement": "anti-anxiety action", "setting": "rats [9]", "value": "exhibits an anti-anxiety action"},
      {"measurement": "stress-related sleep disorder", "setting": "high-anxiety rats", "value": "inhibits"}
    ]},
    {"molecule": "CCCN(CC1CC1)c1nc(C)nc(Nc2c(Cl)cc(Cl)cc2Cl)c1Cl", "note": "[NBI-27914]", "values": [
      {"measurement": "water avoidance stress-related rat catharsis", "setting": "rat", "value": "inhibits"},
      {"measurement": "increased levels of Aβ and Aβ plaque deposition induced by stress", "setting": "Tg2576 mice", "value": "inhibits"},
      {"measurement": "limbic system seizure (convulsion and epilepsy induced by CRF administration)", "setting": "[10]", "value": "inhibits"}
    ]},
    {"molecule": "CCCCN(CC)c1nc(C)nc2c1c(C)c(C)n2-c1c(C)cc(C)cc1C", "note": "[antalarmin]", "values": [
      {"measurement": "stress-induced hippocampal tau phosphorylation", "setting": "[11]", "value": "inhibits"},
      {"measurement": "hypertension induced by intraventricular administration of CRF", "setting": "[12]", "value": "inhibits"}
    ]},
    {"molecule": "α-helical CRF(9-41)", "values": [
      {"measurement": "abdominal pain and anxiety", "setting": "IBS patients", "value": "reduces"},
      {"measurement": "colon intestinal hyperkinesis", "setting": "IBS patients", "value": "inhibits"},
      {"measurement": "anxiety behavior", "setting": "ethanol withdrawal rats", "value": "inhibits"},
      {"measurement": "stress-related reduction in food intake", "setting": "[7]", "value": "inhibit"},
      {"measurement": "stress-related increase in intracerebral amyloid-β", "setting": "[13]", "value": "suppresses"},
      {"measurement": "ischemic and excitotoxic encephalopathy", "setting": "[14]", "value": "inhibits"}
    ]}
  ]
}
